Converted amounts (≈) assume the structure as drawn. The source made the active and inactive calls. The rule behind the calls is not given here.
Columns and labels:
[1] = Tmax in male ICR mouse at 2 mg/kg, iv measured after 24 hrs by LC-MS/MS analysis; assay type: ADME, organism-based; conditions: in vivo
[2] = AUC (0 to t) in male ICR mouse at 2 mg/kg, iv measured after 24 hrs by LC-MS/MS analysis; assay type: ADME, organism-based; conditions: in vivo
[3] = Volume of distribution at steady state in male ICR mouse at 2 mg/kg, iv measured after 24 hrs by LC-MS/MS analysis; assay type: ADME, organism-based; conditions: in vivo, read-out: Vdss
[4] = Cmax in male ICR mouse at 20 mg/kg, po measured after 24 hrs by LC-MS/MS analysis; assay type: ADME, organism-based; conditions: in vivo
[5] = Oral bioavailability in male ICR mouse at 20 mg/kg measured after 24 hrs by LC-MS/MS analysis; assay type: ADME, organism-based; conditions: in vivo
[Candida] auris = Antifungal activity against Candida auris 0030 assessed as inhibition of fungal growth incubated for 48 to 72 hrs by microplate reader analysis; assay type: functional, organism-based; conditions: Candidozyma auris, time 48-72 hrs
Cryptococcus neoformans [6] = test: Antifungal activity against Cryptococcus neoformans H99 assessed as inhibition of fungal growth incubated for 48 to 72 hrs by microplate reader analysis; assay type: functional; conditions: time 48-72 hrs
Nakaseomyces glabratus [7] = test: Antifungal activity against Candida glabrata 8535 assessed as inhibition of fungal growth incubated for 48 to 72 hrs by microplate reader analysis; assay type: functional; conditions: time 48-72 hrs
Nakaseomyces glabratus [8] = test: Antifungal activity against Candida glabrata 0161 assessed as inhibition of fungal growth incubated up to 72 hrs by microplate reader analysis; assay type: functional, organism-based; conditions: dose 0.13-0.00049 µg/ml
Nakaseomyces glabratus [9] = test: Fungistatic activity against Candida glabrata 0161 assessed as inhibition of fungal growth at 0.031 microg/ml incubated up to 72 hrs by microplate reader analysis; assay type: functional, organism-based; conditions: dose 0.031 µg/ml
Cryptococcus neoformans [10] = test: Antifungal activity against Cryptococcus neoformans H99 assessed as inhibition of fungal growth at 0.031 microg/ml incubated for 72 hrs by microplate reader analysis; assay type: functional, organism-based; conditions: dose 0.031 µg/ml
Cryptococcus neoformans [11] = test: Antifungal activity against Cryptococcus neoformans H99 assessed as inhibition of fungal growth at 0.13 microg/ml incubated for 72 hrs by microplate reader analysis relative to control; assay type: functional
Nakaseomyces glabratus [12] = test: Antifungal activity against Candida glabrata 0161 assessed as inhibition of fungal growth at <0.0078 microg/ml incubated for 72 hrs by microplate reader analysis; assay type: functional, organism-based; conditions: dose < 0.0078 µg/ml
Cryptococcus neoformans [13] = test: Antifungal activity against Cryptococcus neoformans H99 assessed as inhibition of fungal growth at <0.0078 microg/ml incubated for 72 hrs by microplate reader analysis; assay type: functional, organism-based; conditions: dose < 0.0078 µg/ml
Nakaseomyces glabratus [14] = test: Fungicidal activity against Candida glabrata 0161 incubated for 48 hrs by time-kill kinetics analysis; assay type: functional
Cryptococcus neoformans [15] = test: Antifungal activity against Cryptococcus neoformans H99 assessed as inhibition of fungal growth at 0.5 to 4 microg/ml incubated for 48 hrs by spot-plating assay; assay type: functional, organism-based; conditions: dose 0.5-4 µg/ml
Cryptococcus neoformans [16] = test: Inhibition of biofilm formation in Cryptococcus neoformans H99 at 32 microg/ml incubated for 24 hrs by XTT reagent based assay relative to control; assay type: functional
Cryptococcus neoformans [17] = test: Inhibition of matured biofilm in Cryptococcus neoformans H99 at 2 to 32 microg/ml incubated for 24 hrs by XTT reagent based assay; assay type: functional, organism-based; conditions: dose 2-32 µg/ml
Cryptococcus neoformans [18] = test: Inhibition of capsule formation in Cryptococcus neoformans H99 at 4 microg/ml incubated for 24 hrs by light microscopic analysis; assay type: functional, organism-based; conditions: dose 4.0 µg/ml
Cryptococcus neoformans [19] = test: Induction of morphological changes in Cryptococcus neoformans H99 assessed as mitochondrial fragmentation at 4 microg/ml incubated for 8 hrs by transmission electron microscopic analysis; assay type: functional, organism-based; conditions: dose 4.0 µg/ml
Cryptococcus neoformans [20] = test: Induction of ROS accumulation in Cryptococcus neoformans H99 assessed as increase in intracellular ROS level by measuring intense green fluorescence at 4 microg/ml incubated for 24 hrs by DCFH-DA probe based fluorescence microscopic analysis; assay type: functional, organism-based; conditions: dose 4.0 µg/ml
Nakaseomyces glabratus [21] = test: Induction of ROS accumulation in Candida glabrata 0161 assessed as increase in intracellular ROS level by measuring intense green fluorescence incubated for 24 hrs by DCFH-DA probe based fluorescence microscopic analysis; assay type: functional, organism-based
Cryptococcus neoformans [22] = test: Upregulation of SOD1 gene expression in Cryptococcus neoformans H99 at 4 microg/ml incubated for 8 hrs by qRT-PCR analysis; assay type: functional; conditions: dose 4.0 µg/ml
Cryptococcus neoformans [23] = test: Upregulation of TSA1 gene expression in Cryptococcus neoformans H99 at 4 microg/ml incubated for 8 hrs by qRT-PCR analysis; assay type: functional; conditions: dose 4.0 µg/ml
Nakaseomyces glabratus [24] = test: Upregulation of SOD1 gene expression in Candida glabrata 0161 incubated for 8 hrs by qRT-PCR analysis; assay type: functional
Nakaseomyces glabratus [25] = test: Upregulation of GPX1 gene expression in Candida glabrata 0161 incubated for 8 hrs by qRT-PCR analysis; assay type: functional
Nakaseomyces glabratus [26] = test: Upregulation of TRR1 gene expression in Candida glabrata 0161 incubated for 8 hrs by qRT-PCR analysis; assay type: functional
Cryptococcus neoformans [27] = test: Antifungal activity against Cryptococcus neoformans H99 assessed as inhibition of fungal growth by measuring fold increase in MIC in presence of 10% serum containing transferrin-bound ferric iron and free iron; assay type: functional
Cryptococcus neoformans [28] = test: Antifungal activity against Cryptococcus neoformans H99 assessed as inhibition of fungal growth by measuring fold increase in MIC in presence of Fe(III) ion; assay type: functional
Cryptococcus neoformans [29] = test: Antifungal activity against Cryptococcus neoformans H99 assessed as inhibition of fungal growth in presence of 1 to 10 microg/ml Fe(III) ion; assay type: functional, organism-based
Nakaseomyces glabratus [30] = test: Antifungal activity against Candida glabrata 0161 assessed as inhibition of fungal growth in presence of Fe(II) ion; assay type: functional, organism-based
Nakaseomyces glabratus [31] = test: Antifungal activity against Candida glabrata 0161 assessed as inhibition of fungal growth in presence of 10% serum containing transferrin-bound ferric iron and free iron; assay type: functional, organism-based
Nakaseomyces glabratus [32] = test: Antifungal activity against Candida glabrata 0161 infected in candidiasis female ICR mouse model assessed as reduction in fungal burden in kidney at 20 mg/kg, po pre-infected with fungi for 3 hrs followed by compound administration and measured after 5 days; assay type: functional, organism-based; conditions: time 5.0 day
Nakaseomyces glabratus [33] = test: Antifungal activity against Candida glabrata 0161 infected in candidiasis female ICR mouse model assessed as reduction in fungal burden in kidney at 20 mg/kg, ip pre-infected with fungi for 3 hrs followed by compound administration and measured after 5 days; assay type: functional; conditions: time 5 day
Cryptococcus neoformans [34] = test: Antifungal activity against Cryptococcus neoformans H99 infected in cryptococcosis female ICR mouse model assessed as reduction in fungal burden in brain at 20 mg/kg, ip pre-infected with fungi for 3 hrs followed by compound administration and measured after 5 days; assay type: functional, organism-based; conditions: time 5.0 day
Nakaseomyces glabratus [35] = test: Antifungal activity against Candida glabrata 0161 infected in candidiasis female ICR mouse model assessed as tight arrangement of renal tubular epithelial cells at 20 mg/kg, ip pre-infected with fungi for 3 hrs followed by compound administration and measured after 5 days by H and E staining based analysis; assay type: functional, organism-based; conditions: time 5.0 day
Nakaseomyces glabratus [36] = test: Antifungal activity against Candida glabrata 0161 infected in candidiasis female ICR mouse model assessed as reduction in detachment of renal tubular epithelial cells at 20 mg/kg, ip pre-infected with fungi for 3 hrs followed by compound administration and measured after 5 days by H and E staining based analysis; assay type: functional, organism-based; conditions: time 5.0 day
Cryptococcus neoformans [37] = test: Antifungal activity against Cryptococcus neoformans H99 infected in cryptococcosis female ICR mouse model assessed as reduction in cytoplasmic loosening at 20 mg/kg, ip pre-infected with fungi for 3 hrs followed by compound administration and measured after 5 days by H and E staining based analysis; assay type: functional, organism-based; conditions: time 5.0 day

SMILES: Nc1cc(=O)n(C(=S)Nc2ccc(C3CCCCC3)cc2)[nH]1
- Tmax [1]: 4.98 min
- AUC(0-t) at 24 h [2]: 2040 ng·h/mL
- Vd [3]: 1.47 L/kg
- Cmax [4]: 1720 ng/mL
- bioavailability [5]: 22.6%
- Activity ([Candida] auris): Active
- MIC80 (Cryptococcus neoformans [6]): 0.38 nM (≈ 0.12 ng/mL)
- MIC80 (Nakaseomyces glabratus [7]): 1.2 10^-4 ug/ml
- Activity (Nakaseomyces glabratus [8]): Dose-dependent-effect
- Activity (Nakaseomyces glabratus [9]): Active; Significantly Better Activity Observed Than Fluconazole At 8 Microg/Ml
- Activity (Cryptococcus neoformans [10]): Active; Significantly Better Inhibitory Effect Observed Than Fluconazole At 8.0 Microg/Ml
- inhibition at 0.13 µg/mL (Cryptococcus neoformans [11]): 100%
- Activity (Nakaseomyces glabratus [12]): Not active; Decrease In Inhibitory Potency Observed
- Activity (Cryptococcus neoformans [13]): Not active; Decrease In Inhibitory Potency Observed
- MFC (Nakaseomyces glabratus [14]): 2 µg/mL (≈ 6.32 µM)
- Activity (Cryptococcus neoformans [15]): Active
- inhibition at 32 µg/mL (Cryptococcus neoformans [16]): 77%
- inhibition (Cryptococcus neoformans [17]): Active; Better Inhibitory Effect Observed Under High Concentration
- inhibition (Cryptococcus neoformans [18]): Active
- Activity (Cryptococcus neoformans [19]): Active
- Activity (Cryptococcus neoformans [20]): Active
- Activity (Nakaseomyces glabratus [21]): Active
- Activity (Cryptococcus neoformans [22]): Active
- Activity (Cryptococcus neoformans [23]): Active
- Activity (Nakaseomyces glabratus [24]): Active
- Activity (Nakaseomyces glabratus [25]): Active
- Activity (Nakaseomyces glabratus [26]): Active
- fold change (FC) (Cryptococcus neoformans [27]): ~1000
- fold change (FC) (Cryptococcus neoformans [28]): ~1000
- Activity (Cryptococcus neoformans [29]): inactive
- Activity (Nakaseomyces glabratus [30]): inactive
- Activity (Nakaseomyces glabratus [31]): inactive
- Activity (Nakaseomyces glabratus [32]): Active
- Activity (Nakaseomyces glabratus [33]): 1.2 log10CFU/g
- Activity (Cryptococcus neoformans [34]): Active
- Activity (Nakaseomyces glabratus [35]): Active
- Activity (Nakaseomyces glabratus [36]): Active
- Activity (Cryptococcus neoformans [37]): Active
